Assay [1] has as its system C. elegans wild-type strain N2. Briefly: C. elegans oxidative stress assay (H2O2). The conditions noted are these: 2 mM H2O2 for 5 h. It counts as in vivo, Caenorhabditis elegans. As to the method: (§1) Wild-type Bristol strain N2 and the transgenic strain CL4176 (smg-1^ts [pAF29(myo-3/Aβ1–42/let UTR) + pRF4(rol-6(su10069))]) were obtained from the Caenorhabditis Genetics Center (College of Biological Sciences, University of Minnesota, Saint Paul, MN, USA) and were used for oxidative stress experiments and paralysis assays, respectively. C. elegans strains were routinely propagated on Nematode Growth Medium (NGM) plates with Escherichia coli strain OP50 as a food source at 20 °C (N2) or at 16 °C (CL4176). Worms were synchronized by isolating eggs from gravid adults at 20 °C (N2) or at 16 °C (CL4176), and eggs were hatched overnight in NGM plates.
(§2) In the oxidative and paralysis experiments, worms were fed with the different compounds from egg to adult stages, and transferred to new plates every two days.
For oxidative stress experiments, strain N2 was egg-synchronized in NGM plates (control medium) and NGM supplemented with 0.1 µg/mL peptides or 0.1 mg/mL vitamin C (positive control). The viability of C. elegans was assessed after 2 mM hydrogen peroxide (H2O2)-induced oxidative stress for 5 h. Experiments were carried out in triplicate.

Assay [2] has as its target T1, prolyl endopeptidase (PEP) (Elizabethkingia meningoseptica, UniProt P27028).
T1 construct: purchased Seikagaku Corporation (Tokyo, Japan)
Briefly: biochemical. Format: biochemical. The following applies: for PEP Residual Activity (%) / PEP inhibition (in words) / PEP inhibitory activity (% inhibition): peptide 1 mg/mL; for PEP Residual Activity (%): % of control without peptide (100%), pH 7, 30 °C, 30 min, mean ± SD of three replicates, SD; for PEP inhibition (in words): P-containing peptides; for PEP inhibition: highest concentration tested, 3.3 mg/mL. The protocol: The PEP activity was determined as previously described with minor modifications. Enzyme assays were performed in 96-well microplates using Z-Gly-Pro-p-nitroanilide as a substrate and measuring the increase in absorbance at 410 nm due to the release of p-nitroaniline. Ten µL of tenfold peptide or hydrolysate solution in 100 mM sodium phosphate buffer, pH 7 ([…] for LFHs), 30 µL of a 0.1 U/mL PEP solution in 100 mM sodium phosphate buffer (pH 7) and 35 µL of the same sodium phosphate buffer were pre-incubated at 30 °C for 5 min, and the mixture incubated with 25 µL of 2 mM Z-Gly-Pro-p-nitroanilide in 40% 1,4-dioxane for 30 min at the same temperature. The reaction was finished by the addition of 100 µL 10% Triton X-100 in 1 M sodium acetate buffer (pH 4), and the absorbance measured at 410 nm in a microplate reader. Data are expressed as the percentage of PEP residual activity with respect to a control without peptide (100%).
The IC50 value of a peptide was defined as the concentration required to inhibit 50% of the PEP activity and the value for each experiment was estimated by non-linear regression of the experimental data to a four-parameter logistic curve using the software package SigmaPlot v 13.0 (SPSS Inc., Chicago, IL, USA).

Assay [3] deals with transgenic C. elegans strain CL4176 engineered to express human Aβ1–42. The experiment in a line: C. elegans paralysis assay (Aβ1–42-induced paralysis). It counts as in vivo, Caenorhabditis elegans. The protocol:
as §1, §2
Paralysis is induced in strain CL4176 by the expression of a muscle-specific Aβ1–42 which depends on up-shifting temperature from 16 to 25 °C [7, 8]. For paralysis experiments, strain CL4176 maintained at 16 °C was egg-synchronized in plates containing NGM (control medium) and NGM with peptides (0.02–5 µg/mL). Transgene expression was induced by up-shifting the temperature from 16 to 25 °C, starting 24 h after egg laying and maintained for 24 h. The worms were incubated at 20 °C until all the worms in the experiment became paralyzed. Paralysis was scored 24 h after induction. Paralysis in induced worms was compared with non-induced worms (maintained at 16 °C until the end of the paralysis assay). Experiments were carried out at least in duplicate.

The target of assay [4] is T1, prolyl endopeptidase (PEP). Also on record: method as in 2 sources, ref 29 = [29]; PMID 26574880; doi:10.1039/C5FO01262G; 29. Hsieh C.-H. Wang T.-Y. Hung C.-C. Hsieh Y.-L. Hsu K.-C. Isolation of prolyl endopeptidase inhibitory peptides from a sodium caseinate hydrolysate Food Funct. 2016 7 565 573 10.1039/C5FO01262G 2657 ||| ref 31 = [31]; PMID 23675471; doi:10.1371/journal.pone.0063283; 31. Martorell P. Bataller E. Llopis S. Gonzalez N. Alvarez B. Monton F. Ortiz P. Ramon D. Genoves S. A cocoa peptide protects Caenorhabditis elegans from oxidative stress and β-amyloid peptide toxicit. The following applies: cocoa hydrolysate peptide; cited from earlier work.

The mark [5] stands for this setting: 0.1 µg/mL, average paralysis curve of the independent trials.
The mark [6] stands for this setting: dose 0.1 µg/mL, trial 1, hours after temperature up-shift.
[7] abbreviates: dose 0.1 µg/mL, trial 2, hours after temperature up-shift.
[8] abbreviates: dose 0.1 µg/mL, trial 3, hours after temperature up-shift.

Ends that are not written are not given here.

T1 sequence (P27028 21-705): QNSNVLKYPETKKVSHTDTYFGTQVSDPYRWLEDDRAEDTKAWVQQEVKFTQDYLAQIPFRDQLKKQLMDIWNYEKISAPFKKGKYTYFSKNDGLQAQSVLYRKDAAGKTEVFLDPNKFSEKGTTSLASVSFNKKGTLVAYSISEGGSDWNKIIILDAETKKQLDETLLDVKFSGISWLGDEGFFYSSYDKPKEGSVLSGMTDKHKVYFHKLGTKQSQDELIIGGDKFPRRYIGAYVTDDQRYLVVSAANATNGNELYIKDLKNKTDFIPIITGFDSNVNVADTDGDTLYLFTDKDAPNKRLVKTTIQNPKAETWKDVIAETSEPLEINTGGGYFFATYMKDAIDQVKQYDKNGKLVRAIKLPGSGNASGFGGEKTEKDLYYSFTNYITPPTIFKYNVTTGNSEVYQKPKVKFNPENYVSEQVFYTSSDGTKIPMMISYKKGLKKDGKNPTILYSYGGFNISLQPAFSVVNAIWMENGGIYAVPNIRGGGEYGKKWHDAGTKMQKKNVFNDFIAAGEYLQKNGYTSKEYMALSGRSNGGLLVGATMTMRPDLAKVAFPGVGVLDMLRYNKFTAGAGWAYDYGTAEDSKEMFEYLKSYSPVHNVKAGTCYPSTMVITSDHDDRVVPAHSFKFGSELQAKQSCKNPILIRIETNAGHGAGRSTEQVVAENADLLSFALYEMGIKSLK

In the case of `O=C1O[C@H]([C@@H](O)CO)C(O)=C1O` [vitamin C, reference compound], the “worm survival after oxidative stress (in words)” value in assay [1] (vitamin C 10 µg/mL (Figure 4; method says 0.1 mg/mL), positive control) is “significant protection”.

For the molecule “Ac-RKWFHLW-NH2 [PACEI48L, synthetic heptapeptide Ac-RKWFHLW-NH2]”, in assay [2], the “PEP Residual Activity (%)” value was 61.4 ± 4.4 (a) %.

For “Ac-RKWFLHW-NH2 [PACEI49L, synthetic heptapeptide Ac-RKWFLHW-NH2]”, in assay [2], the “PEP Residual Activity (%)” value is given as 46.8 ± 9.1 (b) %.

As to Ac-RKWHFLW-NH2 [PACEI50L], in assay [1] (peptide 0.1 µg/mL, triplicate), the “worm survival after oxidative stress (in words)” value was “none of them was able to increase the worm survival”. Further, the “decrease of paralyzed worms compared with control fed nematodes at 49 h” value in assay [3] (0.1 µg/mL, average curves) turned out to be 25.2%. The “% of non-paralyzed worms at onset paralysis” value (“% of non-paralyzed worms” for short) in assay [3] (setting [5]) is reported as 99%; in assay [3] (dose 0.1 µg/mL, trial 1), 98.4%; in assay [3] (dose 0.1 µg/mL, trial 2), 99.1%; in assay [3] (dose 0.1 µg/mL, trial 3), 97.5%; in assay [3] (dose 0.5 µg/mL, trial 1), 96.7%; in assay [3] (dose 0.5 µg/mL, trial 2) it was 99.2%. The “Onset Paralysis, time” value in assay [3] (setting [5]) was 41 h; in assay [3] (setting [6]) it was 41 h; in assay [3] (setting [7]) it was 43 h; in assay [3] (setting [8]), 43 h; in assay [3] (dose 0.5 µg/mL, trial 1, hours after temperature up-shift), 45 h; in assay [3] (dose 0.5 µg/mL, trial 2, hours after temperature up-shift), 43 h. Besides, the “Paralyzed Worms (percentage at 49 h)” value in assay [3] (setting [5]) was determined as 42.3%. The “effect on paralysis (in words)” value in assay [3] (dose 0.02 µg/mL, data not shown) is listed as “did not provide any effect”. Also, the “Paralyzed Worms at 49 h” value in assay [3] (dose 0.1 µg/mL, trial 1) worked out at 48.7%; in assay [3] (dose 0.1 µg/mL, trial 2), 21.9%; in assay [3] (dose 0.1 µg/mL, trial 3), 56.2%; in assay [3] (dose 0.5 µg/mL, trial 1) it was 41.3%; in assay [3] (dose 0.5 µg/mL, trial 2), 41.7%. Moreover, in assay [2], the “PEP Residual Activity (%)” value is given as 6.4 ± 2.3 (c) %.

Take “Ac-RKWHLFW-NH2 [PACEI51L, synthetic heptapeptide Ac-RKWHLFW-NH2]”: in assay [2], the “PEP Residual Activity (%)” value is listed as 71.6 ± 4.9 (a) %.

In the case of “Ac-RKWLFHW-NH2 [PACEI52L, synthetic heptapeptide Ac-RKWLFHW-NH2]”, the “PEP Residual Activity (%)” value in assay [2] is on record as 65.9 ± 3.6 (a) %.

For “Ac-RKWLHFW-NH2 [PACEI53L, synthetic heptapeptide Ac-RKWLHFW-NH2]”, the “PEP Residual Activity (%)” value in assay [2] is 71.5 ± 4.5 (a) %.

Regarding DNYDNSAGKWWVT [Peptide 13L], in assay [4], the “IC50 (PEP inhibition)” value is 190 µg/mL.

“DRDQY [PKH1, synthetic peptide identified in proteinase K lactoferrin hydrolysate, DRDQY]”: the “PEP Residual Activity (%)” value in assay [2] stood at 102.7 ± 7.0%.

Regarding “DRDQYELL [PKH7, synthetic peptide identified in proteinase K lactoferrin hydrolysate, DRDQYELL]”, the “PEP Residual Activity (%)” value in assay [2] is reported as 115.3 ± 4.2 %.

Regarding “ENLPEKA [PKH3, synthetic peptide identified in proteinase K lactoferrin hydrolysate, ENLPEKA]”, in assay [2], the “PEP Residual Activity (%)” value was found to be 97.1 ± 0.1% and the “PEP inhibition (in words)” value is reported as “failed to inhibit PEP”.

Turning to “GGRPTYEEY [PKH5, synthetic peptide identified in proteinase K lactoferrin hydrolysate, …]”, in assay [2], the “PEP Residual Activity (%)” value is on record as 96.9 ± 2.1% and the “PEP inhibition (in words)” value is given as “failed to inhibit PEP”.

In the case of “GILRPY [PKH6, synthetic peptide identified in proteinase K lactoferrin hydrolysate, GILRPY]”, in assay [2], the “PEP Residual Activity (%)” value is on record as 97.2 ± 4.0% and the “PEP inhibition (in words)” value was “failed to inhibit PEP”.

Take “GILRPYL [PKH10, synthetic peptide identified in proteinase K lactoferrin hydrolysate, GILRPYL]”: in assay [2], the “PEP Residual Activity (%)” value came out at 103.9 ± 0.8% and the “PEP inhibition (in words)” value is “failed to inhibit PEP”.

As to “NEGLTW [PKH8, LF-derived hexapeptide NEGLTW]”, in assay [2], the “PEP inhibitory activity (% inhibition)” value is listed as 12% and the “PEP Residual Activity (%)” value worked out at 87.1 ± 1.0 %.

As for “NIPMGL [PKH9, synthetic peptide identified in proteinase K lactoferrin hydrolysate, NIPMGL]”, in assay [2], the “PEP Residual Activity (%)” value is given as 95.5 ± 3.4% and the “PEP inhibition (in words)” value is given as “failed to inhibit PEP”.

In the case of “RIPSKV [PKH4, synthetic peptide identified in proteinase K lactoferrin hydrolysate, RIPSKV]”, in assay [2], the “PEP Residual Activity (%)” value is on record as 109.6 ± 2.2 % and the “PEP inhibition (in words)” value is recorded as “failed to inhibit PEP”.

As to “RKAHFLA [PACEI50L-v2, PACEI50L derivative, both W residues at position 3 and 7 replaced with A, RKAHFLA]”, the “final percentage of non-paralyzed worms, lower than the control conditions by” value in assay [3] (0.1 µg/mL, average curves) came out at 5.6%. Also, the “% of non-paralyzed worms” value in assay [3] (setting [5]) is 92%; in assay [3] (dose 0.1 µg/mL, trial 1) it was 91.3%; in assay [3] (dose 0.1 µg/mL, trial 2), 90.7%; in assay [3] (dose 0.1 µg/mL, trial 3), 94.7%. Also, the “Onset Paralysis, time” value in assay [3] (setting [5]), in assay [3] (setting [6]), in assay [3] (setting [7]) and in assay [3] (setting [8]) was 41 h throughout. For the same molecule, the “Paralyzed Worms (percentage at 49 h)” value in assay [3] (setting [5]) was 73.1%. Moreover, the “Paralyzed Worms at 49 h” value amounted to 74.9% in assay [3] (dose 0.1 µg/mL, trial 1); 75.9% in assay [3] (dose 0.1 µg/mL, trial 2); 68.4% in assay [3] (dose 0.1 µg/mL, trial 3). Further, in assay [2], the PEP inhibition entry is “did not exhibit a clear inhibitory effect”.

Turning to RKWHFLA [PACEI50L-v1], the “% of non-paralyzed worms” value was determined as 94% in assay [3] (setting [5]); 98.0% in assay [3] (dose 0.1 µg/mL, trial 1); 91.7% in assay [3] (dose 0.1 µg/mL, trial 2); 93.3% in assay [3] (dose 0.1 µg/mL, trial 3). Besides, the “Onset Paralysis, time” value in assay [3] (setting [5]), in assay [3] (setting [6]), in assay [3] (setting [7]) and in assay [3] (setting [8]) was 41 h throughout. In assay [3] (setting [5]), the “Paralyzed Worms (percentage at 49 h)” value worked out at 62.8%. The “Paralyzed Worms at 49 h” value in assay [3] (dose 0.1 µg/mL, trial 1) came to 62.5%; in assay [3] (dose 0.1 µg/mL, trial 2), 71.9%; in assay [3] (dose 0.1 µg/mL, trial 3) it was 53.7%. Also, in assay [2], the PEP inhibition was 20%.

In the case of SVDGKEDLIA [PKH11-v1], the concentration for half-maximal inhibition (IC50) in assay [2] was 2870 µM.

With SVDGKEDLIW [PKH11], in assay [2], the IC50 is 1810 µM, the “PEP inhibitory activity (% inhibition)” value is 22% and the “PEP Residual Activity (%)” value is reported as 78.0 ± 3.1 %.
